Assay results reported in US8097752B2, “Antiprotozoal ring-substituted phospholipids” (priority 2002, dated 2012).
Where a name gives a salt, the structure may show the parent alone.

How the values were obtained:
[1] = test system: promastigote forms of Leishmania infantum; assay: In vitro antileishmanial activity in promastigote cultures (MTT), L. infantum; format: cell-based, Leishmania infantum MHOM/TN/80/IPT1/LEM 235; settings: promastigotes, 72 h incubation, mean ± SEM, n = 3-4 (each run in duplicate), read-out: IC50 (μM) L. infantum MON 235
Procedure: (§1) Determination of in Vitro Antileishmanial Activity in Promastigote Cultures.
(§2) The effect of the phospholipids according to the present invention against the promastigote forms of Leishmania donovani and Leishmania infantum was evaluated using an MTT (3-(4,5-dimethylthiazol-2yl)-2,5-diphenyltetrazolium bromide)-based enzymatic method as a marker of cell viability and was compared with that of the ether phospholipid hexadecylphosphocholine (Miltefosine). Thus, promastigotes of Leishmania infantum MHOM/TN/80/IPT1/LEM 235 and Leishmania donovani MHOM/IN/80/DD8/LEM 703, were grown in RPMI 1640 supplemented with 10% FCS, L. glutamine and antibiotics, at 26° C. All new compounds were dissolved in DMSO to a final concentration of 9.625 mM and linear 3-fold dilutions were done in the culture medium. 25 μL of promastigote culture at 5×10^5 cells/mL were cultured in a 96-well flat-bottom plate (Costar 3696), and incubated with 25 μL of different drug concentrations at 26° C. After 72 h, 10 μL of 5 mg/mL MTT in PBS (SIGMA M2128) were added and incubation was continued for 3 h. The reaction was stopped by the addition of 50 μL of 50% isopropanol, 10% SDS under gentle shacking for 30 min. Absorbance was measured at 550 nm with reference at 620 nm in a TRITURUS microplate reader.

[2] = test system: promastigote forms of Leishmania donovani; assay: In vitro antileishmanial activity in promastigote cultures (MTT), L. donovani; format: cell-based, Leishmania donovani MHOM/IN/80/DD8/LEM 703; settings: promastigotes, 72 h incubation, mean ± SEM, n = 3-4 (each run in duplicate), read-out: IC50 (μM) L. donovani MON 703
Procedure: as §1, §2

THP1 cells = assay: Assessment of cytotoxicity in THP1 monocyte cells (SYBR-14/PI staining, flow cytometry); settings: THP1 monocytes infected with L. donovani and L. infantum; 72 hours; concentrations as low as 50 μM
Procedure: Thus, we proceeded to assess the cytotoxicity of four inventive compounds as well as miltefosine in the human monocytic cell line THP1.
Assessment of Cytotoxicity in THP1 Monocyte Cells.
As a quantitative measurement of the cell damage after incubation with different concentrations of drugs dual staining with SYBR-14 and PI (Molecular Probes, The Netherlands) was used followed by flow cytometry.
THP1 cell cultures were incubated at 1×10^6 cells/ml with different concentrations of the compounds ranging from 50 to 1.56 μM. After an incubation period of 72 hours approximately 4×10^6 cells were suspended in labeling buffer (10 mM HEPES, 150 mM NaCl, 10% BSA, pH 7.4) and 10 μg/ml PI and 0.1 mg/ml SYBR-14 were added. The cultures were incubated at 37° C. for 30 minutes before analysis by flow cytometry.
Cell samples were analyzed on an Epics Elite model flow cytometer (Coulter, Miami, Fla.). The green fluorescence of SYBR-14 and the red fluorescence of PI were excited at 488 nm. At least 10,000 cells were analyzed per sample and each staining experiment was repeated twice. Data analysis was performed on fluorescence intensities that excluded cell autofluorescence and cell debris.
THP1 monocytes infected with the appropriate Leishmania species were used for the evaluation of the leishmanicidal activity of the compounds against the intracellular amastigote stages of the parasite.

SMILES	IC50 [1]	IC50 [2]	cytotoxic effect on THP1 cells (percentage of live THP1 cells, FIG. 1) (THP1 cells)
CCCCCCCCCCCC=C1CCC(OCCOP(=O)([O-])OCC[N+](C)(C)C)CC1 (stereo not drawn) [Example 1, 1-{2-{[(4-Dodecylidenecyclohexyloxy)ethyloxy]hydroxyphosphinyloxy}ethyl}-N,N,N-trimethylammonium inner salt]	3.25 ± 0.65 µM	7.08 ± 1.2 µM	–
CCCCCCCCCCCC=C1CCC(OCCOP(=O)([O-])OCC[N+]2(C)CCCCC2)CC1 (stereo not drawn) [Example 2, 1-{2-{[(4-Dodecylidenecyclohexyloxy)ethyloxy]hydroxyphosphinyloxy}ethyl}-1-methylpiperidinium inner salt]	23.1 ± 3.6 µM	22 ± 3.25 µM	–
CCCCCCCCCCCC=C1CCC(OCCOP(=O)([O-])OCC[N+]2(C)CCOCC2)CC1 (stereo not drawn) [Example 3, 1-{2-{[(4-Dodecylidenecyclohexyloxy)ethyloxy]hydroxyphosphinyloxy}ethyl}-1-methylmorpholinium inner salt]	16.5 ± 1.8 µM	50.7 ± 3.6 µM	–
CCCCCCCCCCCCCC=C1CCC(OCCOP(=O)([O-])OCC[N+](C)(C)C)CC1 (stereo not drawn) [Example 4, 1-{2-{[(4-Tetradecylidenecyclohexyloxy)ethyloxy]hydroxyphosphinyloxy}ethyl}-N,N,N-trimethylammonium inner salt]	5.25 ± 0.45 µM	3.91 ± 0.21 µM	–
CCCCCCCCCCCCCC=C1CCC(OCCOP(=O)([O-])OCC[N+]2(C)CCCCC2)CC1 (stereo not drawn) [Example 5, 1-{2-{[(4-Tetradecylidenecyclohexyloxy)ethyloxy]hydroxyphosphinyloxy}ethyl}-1-methylpiperidinium inner salt]	11.4 ± 2.4 µM	29.7 ± 3.6 µM	–
CCCCCCCCCCCCCC=C1CCC(OCCOP(=O)([O-])OCC[N+]2(C)CCOCC2)CC1 (stereo not drawn) [Example 6, 1-{2-{[(4-Tetradecylidenecyclohexyloxy)ethyloxy]hydroxyphosphinyloxy}ethyl}-1-methylmorpholinium inner salt]	15.5 ± 1.8 µM	38.6 ± 3.2 µM	–
CCCCCCCCCCCCCCCC=C1CCC(OCCOP(=O)([O-])OCC[N+](C)(C)C)CC1 (stereo not drawn) [Example 7, 1-{2-{[(4-Hexadecylidenecyclohexyloxy)ethyloxy]hydroxyphosphinyloxy}ethyl}-N,N,N-trimethylammonium inner salt]	21.2 ± 2.6 µM	45.1 ± 7.2 µM	–
CCCCCCCCCCCCCCCC=C1CCC(OCCOP(=O)([O-])OCC[N+]2(C)CCCCC2)CC1 (stereo not drawn) [Example 8, 1-{2-{[(4-Hexadecylidenecyclohexyloxy)ethyloxy]hydroxyphosphinyloxy}ethyl}-1-methylpiperidinium inner salt]	6.5 ± 1.7 µM	22 ± 1.99 µM	–
CCCCCCCCCCCCCCCC=C1CCC(OCCOP(=O)([O-])OCC[N+]2(C)CCOCC2)CC1 (stereo not drawn) [Example 9, 1-{2-{[(4-Hexadecylidenecyclohexyloxy)ethyloxy]hydroxyphosphinyloxy}ethyl}-1-methylmorpholinium inner salt]	3.7 ± 0.71 µM	16.2 ± 2.29 µM	–
C[N+](C)(C)CCOP(=O)([O-])OCCCCC=C1CCCCC1 [Example 10, 1-{2-[(5-Cyclohexylidenepentyloxy)hydroxyphosphinyloxy]ethyl}-N,N,N-trimethylammonium inner salt]	> 100 µM	> 100 µM	–
C[N+]1(CCOP(=O)([O-])OCCCCC=C2CCCCC2)CCCCC1 [Example 11, 1-{2-[(5-Cyclohexylidenepentyloxy)hydroxyphosphinyloxy]ethyl}-1-methylpiperidinium inner salt]	> 100 µM	> 100 µM	–
C[N+]1(CCOP(=O)([O-])OCCCCC=C2CCCCC2)CCOCC1 [Example 12, 1-{2-[(5-Cyclohexylidenepentyloxy)hydroxyphosphinyloxy]ethyl}-1-methylmorpholinium inner salt]	> 100 µM	> 100 µM	–
C[N+](C)(C)CCOP(=O)([O-])OCCCCCCCCCCC=C1CCCCC1 [Example 13, 1-{2-[(11-Cyclohexylideneundecyloxy)hydroxyphosphinyloxy]ethyl}-N,N,N-trimethylammonium inner salt]	5.2 ± 1.5 µM	2.4 ± 0.6 µM	not observed
C[N+]1(CCOP(=O)([O-])OCCCCCCCCCCC=C2CCCCC2)CCCCC1 [Example 14, 1-{2-[(11-Cyclohexylideneundecyloxy)hydroxyphosphinyloxy]ethyl}-1-methylpiperidinium inner salt]	47.6 ± 7.33 µM	8.7 ± 1 µM	–
C[N+]1(CCOP(=O)([O-])OCCCCCCCCCCC=C2CCCCC2)CCOCC1 [Example 15, 1-{2-[(11-Cyclohexylideneundecyloxy)hydroxyphosphinyloxy]ethyl}-1-methylmorpholinium inner salt]	22.8 ± 1.7 µM	8.25 ± 0.25 µM	–
C[N+](C)(C)CCOP(=O)([O-])OCCCCC=C1C2CC3CC(C2)CC1C3 [Example 16, 1-{2-[(5-Adamantylidenepentyloxy)hydroxyphosphinyloxy]ethyl}-N,N,N-trimethylammonium inner salt]	> 100 µM	4.99 ± 1.5 µM	–
C[N+]1(CCOP(=O)([O-])OCCCCC=C2C3CC4CC(C3)CC2C4)CCCCC1 [Example 17, 1-{2-[(5-Adamantylidenepentyloxy)hydroxyphosphinyloxy]ethyl}-1-methylpiperidinium inner salt]	> 100 µM	> 100 µM	–
C[N+]1(CCOP(=O)([O-])OCCCCC=C2C3CC4CC(C3)CC2C4)CCOCC1 [Example 18, 1-{2-[(5-Adamantylidenepentyloxy)hydroxyphosphinyloxy]ethyl}-1-methylmorpholinium inner salt]	> 100 µM	46.9 ± 8.7 µM	–
C[N+](C)(C)CCOP(=O)([O-])OCCCCCCCCCCC=C1C2CC3CC(C2)CC1C3 [Example 19, 1-{2-[(11-Adamantylideneundecyloxy)hydroxyphosphinyloxy]ethyl}-N,N,N-trimethylammonium inner salt]	6.75 ± 2.4 µM	3.16 ± 0.63 µM	not observed
C[N+]1(CCOP(=O)([O-])OCCCCCCCCCCC=C2C3CC4CC(C3)CC2C4)CCCCC1 [Example 20, 1-{2-[(11-Adamantylideneundecyloxy)hydroxyphosphinyloxy]ethyl}-1-methylpiperidinium inner salt]	22.6 ± 3.4 µM	5.41 ± 1.14 µM	–
C[N+]1(CCOP(=O)([O-])OCCCCCCCCCCC=C2C3CC4CC(C3)CC2C4)CCOCC1 [Example 21, 1-{2-[(11-Adamantylideneundecyloxy)hydroxyphosphinyloxy]ethyl}-1-methylmorpholinium inner salt]	6.64 ± 1.2 µM	5.09 ± 1.86 µM	–
CCCCCCCCCCCCC1CCC(OCCOP(=O)([O-])OCC[N+](C)(C)C)CC1 (stereo not drawn) [Example 26, 1-{2-{[(4-Dodecylcyclohexyloxy)ethyloxy]hydroxyphosphinyloxy}ethyl}-N,N,N-trimethylammonium inner salt]	5.65 ± 1.93 µM	9.49 ± 1.4 µM	–
CCCCCCCCCCCCCCC1CCC(OCCOP(=O)([O-])OCC[N+](C)(C)C)CC1 (stereo not drawn) [Example 27, 1-{2-{[(4-Tetradecylcyclohexyloxy)ethyloxy]hydroxyphosphinyloxy}ethyl}-N,N,N-trimethylammonium inner salt]	23.3 ± 3.5 µM	23.7 ± 4.4 µM	–
C[N+](C)(C)CCOP(=O)([O-])OCCCCCCCCCCCC1CCCCC1 [Example 28, 1-{2-[(11-Cyclohexylundecyloxy)hydroxyphosphinyloxy]ethyl}-N,N,N-trimethylammonium inner salt]	8.4 ± 0.8 µM	10.3 ± 1.3 µM	–
C[N+](C)(C)CCOP(=O)([O-])OCCCCCC12CC3CC(CC(C3)C1)C2 [Example 29, 1-{2-[(5-Adamantylpentyloxy)hydroxyphosphinyloxy]ethyl}-N,N,N-trimethylammonium inner salt]	> 100 µM	4.02 ± 2.3 µM	–
C[N+](C)(C)CCOP(=O)([O-])OCCCCCCCCCCCC12CC3CC(CC(C3)C1)C2 [Example 30, 1-{2-[(11-Adamantylundecyloxy)hydroxyphosphinyloxy]ethyl}-N,N,N-trimethylammonium inner salt]	5.97 ± 1.06 µM	2.88 ± 0.72 µM	–
